Reference: patent US10005774B2, “Syk inhibitors” (Gilead Sciences, Inc., priority 2013, dated 2018)

Biological target: Syk (Homo sapiens, UniProt P43405)
Assay: High Throughput Syk Biochemical Assay (KinEASE TR-FRET)
Details: TABLE D, 20 μM ATP, 1 μM biotinylated peptide, 0.015 nM Syk, 30 min at room temperature, read-out: IC50
Summary of the method: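 Compounds in DMSO dilution series were tested against Syk, which phosphorylates an XL665-tagged peptide. The phosphoproduct was bound by Eu-labelled phosphotyrosine antibody in a two-step endpoint format.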

Row | Compound | IC50 [nM]
1 | C[C@@H](Oc1nc(-c2cnn(CC(F)F)c2)cc2ncn(C)c12)[C@H]1CNC(=O)C1 [(R)-4-((R)-1-(6-(1-(2,2-difluoroethyl)-1H-pyrazol-4-yl)-3-methyl-3H-imidazo[4,5-c]pyridin-4-yloxy)ethyl)pyrrolidin-2-one] | 17.7
2 | C[C@@H](Oc1nc(-c2cnn(C3CC3)c2)cc2ncn(C)c12)[C@H]1CNC(=O)C1 [(R)-4-((R)-1-(6-(1-cyclopropyl-1H-pyrazol-4-yl)-3-methyl-3H-imidazo[4,5-c]pyridin-4-yloxy)ethyl)pyrrolidin-2-one] | 14
3 | C[C@@H](Oc1cc(-c2cc3c(cnn3C)s2)cc2ncsc12)[C@H]1CNC(=O)C1 [(R)-4-((R)-1-(5-(1-methyl-1H-thieno[3,2-c]pyrazol-5-yl)benzo[d]thiazol-7-yloxy)ethyl)pyrrolidin-2-one] | 7.68
4 | C[C@@H](Oc1nc(-c2ccc(N3CCOCC3)cc2)cc2ncn(C)c12)[C@H]1CNC(=O)C1 [(R)-4-((R)-1-(3-methyl-6-(4-morpholinophenyl)-3H-imidazo[4,5-c]pyridin-4-yloxy)ethyl)pyrrolidin-2-one] | 4.6
5 | Cc1cc(-c2cc3ncn(C)c3c(O[C@H](C)[C@H]3CNC(=O)C3)n2)n[nH]1 [(R)-4-((R)-1-(3-methyl-6-(5-methyl-1H-pyrazol-3-yl)-3H-imidazo[4,5-c]pyridin-4-yloxy)ethyl)pyrrolidin-2-one] | 22.8
6 | COc1ccc(-c2cc3nc(C)n(C(F)F)c3c(O[C@H](C)[C@H]3CNC(=O)C3)n2)cc1OC [(R)-4-((R)-1-(3-(difluoromethyl)-6-(3,4-dimethoxyphenyl)-2-methyl-3H-imidazo[4,5-c]pyridin-4-yloxy)ethyl)pyrrolidin-2-one] | 50.8
7 | COCC[C@@H](Oc1nc(-c2cnn(C(C)(C)C)c2)cc2ncn(C)c12)[C@H]1CNC(=O)C1 [(R)-4-((R)-1-(6-(1-tert-butyl-1H-pyrazol-4-yl)-3-methyl-3H-imidazo[4,5-c]pyridin-4-yloxy)-3-methoxypropyl)pyrrolidin-2-one] | 171
8 | C[C@@H](Oc1nc(-c2csc(C(C)(C)C)n2)cc2ncn(C)c12)[C@H]1CNC(=O)C1 [(R)-4-((R)-1-(6-(2-tert-butylthiazol-4-yl)-3-methyl-3H-imidazo[4,5-c]pyridin-4-yloxy)ethyl)pyrrolidin-2-one] | 19.3
9 | COc1ccc(-c2cc3ncn(C4CC4)c3c(O[C@H](C)[C@H]3CNC(=O)C3)n2)cc1OC [(R)-4-((R)-1-(3-cyclopropyl-6-(3,4-dimethoxyphenyl)-3H-imidazo[4,5-c]pyridin-4-yloxy)ethyl)pyrrolidin-2-one] | 1.6
10 | COc1cc(-c2cc3ncn(C)c3c(O[C@H](C)[C@H]3CNC(=O)C3)n2)cc(OC)c1OC [(R)-4-((R)-1-(3-methyl-6-(3,4,5-trimethoxyphenyl)-3H-imidazo[4,5-c]pyridin-4-yloxy)ethyl)pyrrolidin-2-one] | 5.26
11 | C[C@@H](Oc1nc(-c2ccccc2)cc2ncn(C)c12)[C@H]1CNC(=O)C1 [(R)-4-((R)-1-(3-methyl-6-phenyl-3H-imidazo[4,5-c]pyridin-4-yloxy)ethyl)pyrrolidin-2-one] | 33.8

More lines, now with the values ahead:

Row | IC50 [nM] | Compound
12 | 13.4 | C[C@@H](Oc1nc(-c2ccc(S(=O)(=O)N(C)C)cc2)cc2ncn(C)c12)[C@H]1CNC(=O)C1 [N,N-dimethyl-4-(3-methyl-4-((R)-1-((R)-5-oxopyrrolidin-3-yl)ethoxy)-3H-imidazo[4,5-c]pyridin-6-yl)benzenesulfonamide]
13 | 1.07 | COc1ccc(-c2cc(O[C@H](C)[C@H]3CNC(=O)C3)c3c(Cl)cnn3c2)cc1OC [(R)-4-((R)-1-((3-chloro-6-(3,4-dimethoxyphenyl)pyrazolo[1,5-a]pyridin-4-yl)oxy)ethyl)pyrrolidin-2-one]
14 | 105 | C[C@@H](Oc1cc(-c2cccc3scnc23)cc2ncsc12)[C@H]1CNC(=O)C1 [(R)-4-((R)-1-([4,5′-bibenzo[d]thiazol]-7′-yloxy)ethyl)pyrrolidin-2-one]
15 | 0.377 | Cc1cnn2cc(-c3ccc(N4CCOCC4)cc3)nc(O[C@H](C)[C@H]3CNC(=O)C3)c12 [(R)-4-((R)-1-((3-methyl-6-(4-morpholinophenyl)pyrazolo[1,5-a]pyrazin-4-yl)oxy)ethyl)pyrrolidin-2-one]
16 | 85.1 | COc1cc(-c2cc(O[C@H](C)[C@H]3CNC(=O)C3)c3ccnn3c2)cc(OC)c1OC [(R)-4-((R)-1-((6-(3,4,5-trimethoxyphenyl)pyrazolo[1,5-a]pyridin-4-yl)oxy)ethyl)pyrrolidin-2-one]

Same assay, conditions: table 'ALL NEW COMPOUNDS IN 2014', 20 μM ATP, 1 μM biotinylated peptide, 0.015 nM Syk, 30 min at room temperature, read-out: Syk IC50

Row | Compound | IC50 [nM]
17 | Cc1cnc(-c2cc(O[C@H](C)[C@H]3CNC(=O)C3)c3c(c2)ncn3C2CC2)s1 [(R)-4-((R)-1-((1-cyclopropyl-5-(5-methylthiazol-2-yl)-1H-benzo[d]imidazol-7-yl)oxy)ethyl)pyrrolidin-2-one] | 1.73
18 | C[C@@H](Oc1cc(-c2ccc(N3CCN(C4COC4)CC3)cn2)cc2ncn(C3CC3)c12)[C@H]1CNC(=O)C1 [(R)-4-((R)-1-((1-cyclopropyl-5-(5-(4-(oxetan-3-yl)piperazin-1-yl)pyridin-2-yl)-1H-benzo[d]imidazol-7-yl)oxy)ethyl)pyrrolidin-2-one] | 4.72
19 | C[C@@H](Oc1cc(-c2ccc(N3CCC(N4CCOCC4)CC3)cn2)cc2ncn(C3CC3)c12)[C@H]1CNC(=O)C1 [(R)-4-((R)-1-((1-cyclopropyl-5-(5-(4-morpholinopiperidin-1-yl)pyridin-2-yl)-1H-benzo[d]imidazol-7-yl)oxy)ethyl)pyrrolidin-2-one] | 6.85
20 | Cc1ncc(-c2cc(O[C@H](C)[C@H]3CNC(=O)C3)c3c(c2)ncn3C2CC2)[nH]1 | 20.9
21 | C[C@@H](Oc1cc(-c2ccc3c(n2)NCCO3)cc2ncn(C3CC3)c12)[C@H]1CNC(=O)C1 [(R)-4-((R)-1-((1-cyclopropyl-5-(3,4-dihydro-2H-pyrido[3,2-b][1,4]oxazin-6-yl)-1H-benzo[d]imidazol-7-yl)oxy)ethyl)pyrrolidin-2-one] | 4.76

Further lines, results first:

Row | IC50 [nM] | Compound
22 | 3.63 | C[C@@H](Oc1nc(-c2ccc(N3CCN(C4COC4)CC3)nc2)cc2ncn(C3CC3)c12)[C@H]1CNC(=O)C1 [(R)-4-((R)-1-((3-cyclopropyl-6-(6-(4-(oxetan-3-yl)piperazin-1-yl)pyridin-3-yl)-3H-imidazo[4,5-c]pyridin-4-yl)oxy)ethyl)pyrrolidin-2-one]
23 | 3.46 | Cc1nn(C)c2ccc(-c3cc4ncn(C5CC5)c4c(O[C@H](C)[C@H]4CNC(=O)C4)n3)cc12 [(R)-4-((R)-1-((3-cyclopropyl-6-(1,3-dimethyl-1H-indazol-5-yl)-3H-imidazo[4,5-c]pyridin-4-yl)oxy)ethyl)pyrrolidin-2-one]
24 | 2.33 | C[C@@H](Oc1nc(-c2ccc3c(c2)NCC3(C)C)cc2ncn(C3CC3)c12)[C@H]1CNC(=O)C1 [(R)-4-((R)-1-((3-cyclopropyl-6-(3,3-dimethylindolin-6-yl)-3H-imidazo[4,5-c]pyridin-4-yl)oxy)ethyl)pyrrolidin-2-one]
25 | 2.92 | CCOc1cc(-c2cc3ncn(C4CC4)c3c(O[C@H](C)[C@H]3CNC(=O)C3)n2)ccc1OC [(R)-4-((R)-1-((3-cyclopropyl-6-(3-ethoxy-4-methoxyphenyl)-3H-imidazo[4,5-c]pyridin-4-yl)oxy)ethyl)pyrrolidin-2-one]
26 | 12.4 | C[C@@H](Oc1nc(-c2ccc(N3CCN(C4COC4)CC3)nc2)cc2ncn(C)c12)[C@H]1CNC(=O)C1 [(R)-4-((R)-1-((3-methyl-6-(6-(4-(oxetan-3-yl)piperazin-1-yl)pyridin-3-yl)-3H-imidazo[4,5-c]pyridin-4-yl)oxy)ethyl)pyrrolidin-2-one]
